From ChEMBL document CHEMBL4507264, “Data for DCP probe BAY-7598” (2021)

How the values were obtained:
[1] = target: Ephrin type-A receptor 3 (Homo sapiens) (UniProt P29320); settings: Compound concentration 1000.0 nM
[2] = target: Mitogen-activated protein kinase kinase kinase 6 (Homo sapiens) (UniProt O95382); settings: Compound concentration 1000.0 nM
[3] = test system: Phosphatidylinositol 4,5-bisphosphate 3-kinase catalytic subunit alpha isoform (Homo sapiens), P42336 [E545A]; settings: Compound concentration 1000.0 nM
[4] = target: Hepatocyte growth factor receptor (Homo sapiens) (UniProt P08581); settings: Compound concentration 1000.0 nM
[5] = target: Ephrin type-B receptor 4 (Homo sapiens) (UniProt P54760); settings: Compound concentration 1000.0 nM
[6] = target: G protein-coupled receptor kinase 3 (Homo sapiens) (UniProt P35626); settings: Compound concentration 1000.0 nM
[7] = target: Ephrin type-A receptor 8 (Homo sapiens) (UniProt P29322); settings: Compound concentration 1000.0 nM
[8] = test system: Hepatocyte growth factor receptor (Homo sapiens), P08581 [M1250T]; settings: Compound concentration 1000.0 nM
[9] = target: Serine/threonine-protein kinase 26 (Homo sapiens) (UniProt Q9P289); settings: Compound concentration 1000.0 nM
[10] = target: Ribosomal protein S6 kinase alpha-1 (Homo sapiens) (UniProt Q15418); settings: Compound concentration 1000.0 nM
[11] = target: Serine/threonine-protein kinase PLK4 (Homo sapiens) (UniProt O00444); settings: Compound concentration 1000.0 nM
[12] = target: Ephrin type-B receptor 3 (Homo sapiens) (UniProt P54753); settings: Compound concentration 1000.0 nM
[13] = target: T1, GABA-A receptor; anion channel (Rattus norvegicus) (UniProt O09028+P15431+P18506+P18508+P19969+P20236+P23574+P23576+P28471+P28473+P30191+P62813+P63079+P63138+Q91ZM7+Q9ES14); settings: Compound concentration 10.0 uM
[14] = target: Mitogen-activated protein kinase kinase kinase 2 (Homo sapiens) (UniProt Q9Y2U5); settings: Compound concentration 1000.0 nM
[15] = target: Alpha-2C adrenergic receptor (Homo sapiens) (UniProt P18825); settings: Compound concentration 10.0 uM
[16] = target: Alpha-2B adrenergic receptor (Homo sapiens) (UniProt P18089); settings: Compound concentration 10.0 uM
[17] = test system: Phosphatidylinositol 4,5-bisphosphate 3-kinase catalytic subunit alpha isoform (Homo sapiens), P42336 [H1047Y]; settings: Compound concentration 1000.0 nM
[18] = target: Dual specificity tyrosine-phosphorylation-regulated kinase 1B (Homo sapiens) (UniProt Q9Y463); settings: Compound concentration 1000.0 nM
[19] = target: Serine/threonine-protein kinase 3 (Homo sapiens) (UniProt Q13188); settings: Compound concentration 1000.0 nM
[20] = target: Tyrosine-protein kinase ITK/TSK (Homo sapiens) (UniProt Q08881); settings: Compound concentration 1000.0 nM
[21] = target: Sodium-dependent noradrenaline transporter (Homo sapiens) (UniProt P23975); settings: Compound concentration 10.0 uM
[22] = target: Ribosomal protein S6 kinase alpha-6 (Homo sapiens) (UniProt Q9UK32); settings: Compound concentration 1000.0 nM
[23] = target: Tyrosine-protein kinase Fes/Fps (Homo sapiens) (UniProt P07332); settings: Compound concentration 1000.0 nM
[24] = target: 1-phosphatidylinositol 3-phosphate 5-kinase (Homo sapiens) (UniProt Q9Y2I7); settings: Compound concentration 1000.0 nM
[25] = target: T1, GABA-A receptor; anion channel (Rattus norvegicus); settings: Compound concentration 10.0 uM; remark: listed apart in the source
[26] = target: RAF proto-oncogene serine/threonine-protein kinase (Homo sapiens) (UniProt P04049); settings: Compound concentration 1000.0 nM
[27] = target: Ephrin type-A receptor 6 (Homo sapiens) (UniProt Q9UF33); settings: Compound concentration 1000.0 nM
[28] = target: Serine/threonine-protein kinase 17B (Homo sapiens) (UniProt O94768); settings: Compound concentration 1000.0 nM
[29] = test system: Mast/stem cell growth factor receptor Kit (Homo sapiens), P10721 [D816V]; settings: Compound concentration 1000.0 nM
[30] = target: 5-hydroxytryptamine receptor 2B (Homo sapiens) (UniProt P41595); settings: Compound concentration 10.0 uM
[31] = target: Serine/threonine-protein kinase Nek2 (Homo sapiens) (UniProt P51955); settings: Compound concentration 1000.0 nM
[32] = target: Receptor tyrosine-protein kinase erbB-3 (Homo sapiens) (UniProt P21860); settings: Compound concentration 1000.0 nM
[33] = target: Histamine H2 receptor (Homo sapiens) (UniProt P25021); settings: Compound concentration 10.0 uM
[34] = target: Ribosomal protein S6 kinase alpha-3 (Homo sapiens) (UniProt P51812); settings: Compound concentration 1000.0 nM
[35] = target: Ribosomal protein S6 kinase alpha-4 (Homo sapiens) (UniProt O75676); settings: Compound concentration 1000.0 nM
[36] = target: Death-associated protein kinase 1 (Homo sapiens) (UniProt P53355); settings: Compound concentration 1000.0 nM
[37] = target: Serine/threonine-protein kinase TBK1 (Homo sapiens) (UniProt Q9UHD2); settings: Compound concentration 1000.0 nM
[38] = test system: Tyrosine-protein kinase ABL1 (Homo sapiens), P00519 [M351T]; settings: Compound concentration 1000.0 nM
[39] = target: Dual specificity protein kinase CLK2 (Homo sapiens) (UniProt P49760); settings: Compound concentration 1000.0 nM
[40] = target: Serine/threonine-protein kinase MRCK beta (Homo sapiens) (UniProt Q9Y5S2); settings: Compound concentration 1000.0 nM
[41] = target: Serine/threonine-protein kinase D2 (Homo sapiens) (UniProt Q9BZL6); settings: Compound concentration 1000.0 nM
[42] = target: Tyrosine-protein kinase ABL2 (Homo sapiens) (UniProt P42684); settings: Compound concentration 1000.0 nM

Serine/threonine-protein kinase 26 (Homo sapiens), sequence (Q9P289 2-416 limits assumed): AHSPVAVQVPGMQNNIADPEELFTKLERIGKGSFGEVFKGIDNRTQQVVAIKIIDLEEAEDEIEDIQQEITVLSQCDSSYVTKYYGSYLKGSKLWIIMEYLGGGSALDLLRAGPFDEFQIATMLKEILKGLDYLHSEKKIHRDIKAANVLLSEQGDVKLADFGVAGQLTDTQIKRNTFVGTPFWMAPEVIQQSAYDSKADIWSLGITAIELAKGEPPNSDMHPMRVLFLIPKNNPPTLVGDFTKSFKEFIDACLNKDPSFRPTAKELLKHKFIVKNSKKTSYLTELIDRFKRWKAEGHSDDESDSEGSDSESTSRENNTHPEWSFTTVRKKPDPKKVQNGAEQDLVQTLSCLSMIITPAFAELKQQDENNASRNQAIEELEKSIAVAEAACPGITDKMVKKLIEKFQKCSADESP
Mitogen-activated protein kinase kinase kinase 6 (Homo sapiens), sequence (O95382 whole entry, canonical isoform): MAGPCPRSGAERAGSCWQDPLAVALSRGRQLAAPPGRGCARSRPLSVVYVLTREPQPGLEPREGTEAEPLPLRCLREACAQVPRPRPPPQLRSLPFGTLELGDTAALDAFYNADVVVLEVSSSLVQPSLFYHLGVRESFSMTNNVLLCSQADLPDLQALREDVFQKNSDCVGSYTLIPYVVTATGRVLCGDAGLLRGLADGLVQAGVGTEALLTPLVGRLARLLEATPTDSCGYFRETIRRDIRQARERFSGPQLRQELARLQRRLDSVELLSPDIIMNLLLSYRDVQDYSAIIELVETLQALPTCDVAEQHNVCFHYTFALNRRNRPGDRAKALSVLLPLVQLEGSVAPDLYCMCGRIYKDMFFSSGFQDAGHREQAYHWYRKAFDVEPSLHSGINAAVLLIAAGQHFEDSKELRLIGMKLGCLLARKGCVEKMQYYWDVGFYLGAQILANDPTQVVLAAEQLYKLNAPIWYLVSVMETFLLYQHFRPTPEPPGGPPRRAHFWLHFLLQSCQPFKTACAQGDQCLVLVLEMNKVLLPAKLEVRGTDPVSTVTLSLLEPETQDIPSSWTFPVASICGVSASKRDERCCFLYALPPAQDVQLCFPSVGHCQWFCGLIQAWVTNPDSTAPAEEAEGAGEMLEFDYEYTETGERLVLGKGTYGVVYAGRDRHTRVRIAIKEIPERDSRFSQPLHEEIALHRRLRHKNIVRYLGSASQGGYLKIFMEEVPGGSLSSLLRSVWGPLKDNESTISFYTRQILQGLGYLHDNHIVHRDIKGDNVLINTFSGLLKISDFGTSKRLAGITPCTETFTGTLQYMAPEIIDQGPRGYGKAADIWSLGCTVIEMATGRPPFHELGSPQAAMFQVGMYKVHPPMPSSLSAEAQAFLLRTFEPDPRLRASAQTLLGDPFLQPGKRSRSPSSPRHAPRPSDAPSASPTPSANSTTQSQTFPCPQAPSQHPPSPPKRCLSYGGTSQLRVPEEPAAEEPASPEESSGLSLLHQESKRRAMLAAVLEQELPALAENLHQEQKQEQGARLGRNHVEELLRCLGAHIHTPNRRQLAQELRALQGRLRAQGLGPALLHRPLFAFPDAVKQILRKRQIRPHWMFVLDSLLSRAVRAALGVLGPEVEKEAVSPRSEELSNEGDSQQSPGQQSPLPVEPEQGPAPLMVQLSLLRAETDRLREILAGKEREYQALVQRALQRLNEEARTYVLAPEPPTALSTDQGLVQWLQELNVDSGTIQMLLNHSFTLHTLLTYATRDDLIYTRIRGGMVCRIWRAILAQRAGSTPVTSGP
Ephrin type-B receptor 4 (Homo sapiens), sequence (P54760 whole entry): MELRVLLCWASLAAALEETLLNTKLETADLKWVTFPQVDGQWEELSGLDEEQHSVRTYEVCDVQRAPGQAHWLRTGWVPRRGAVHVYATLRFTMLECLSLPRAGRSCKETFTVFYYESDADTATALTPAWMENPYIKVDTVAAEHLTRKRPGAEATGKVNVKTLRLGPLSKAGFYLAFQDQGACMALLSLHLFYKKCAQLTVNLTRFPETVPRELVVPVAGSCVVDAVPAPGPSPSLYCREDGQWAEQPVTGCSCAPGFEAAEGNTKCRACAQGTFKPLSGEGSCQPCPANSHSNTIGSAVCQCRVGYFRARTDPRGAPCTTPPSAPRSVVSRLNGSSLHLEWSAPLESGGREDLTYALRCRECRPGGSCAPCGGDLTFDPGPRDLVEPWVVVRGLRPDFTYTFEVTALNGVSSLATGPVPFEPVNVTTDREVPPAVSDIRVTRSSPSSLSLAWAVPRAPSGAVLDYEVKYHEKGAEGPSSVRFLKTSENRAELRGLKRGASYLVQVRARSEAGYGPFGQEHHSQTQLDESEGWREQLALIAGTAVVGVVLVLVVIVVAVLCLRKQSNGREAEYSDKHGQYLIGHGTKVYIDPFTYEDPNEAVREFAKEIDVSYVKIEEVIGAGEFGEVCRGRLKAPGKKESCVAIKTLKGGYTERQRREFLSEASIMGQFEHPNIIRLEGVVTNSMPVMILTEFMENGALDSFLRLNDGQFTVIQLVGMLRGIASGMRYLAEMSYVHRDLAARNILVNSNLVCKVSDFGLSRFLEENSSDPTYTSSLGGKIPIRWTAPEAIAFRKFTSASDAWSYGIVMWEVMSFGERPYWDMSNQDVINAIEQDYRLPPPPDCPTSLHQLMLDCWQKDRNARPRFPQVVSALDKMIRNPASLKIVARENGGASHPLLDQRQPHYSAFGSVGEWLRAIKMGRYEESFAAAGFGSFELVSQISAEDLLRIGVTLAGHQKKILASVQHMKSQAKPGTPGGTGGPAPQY
RAF proto-oncogene serine/threonine-protein kinase (Homo sapiens), sequence (P04049 whole entry): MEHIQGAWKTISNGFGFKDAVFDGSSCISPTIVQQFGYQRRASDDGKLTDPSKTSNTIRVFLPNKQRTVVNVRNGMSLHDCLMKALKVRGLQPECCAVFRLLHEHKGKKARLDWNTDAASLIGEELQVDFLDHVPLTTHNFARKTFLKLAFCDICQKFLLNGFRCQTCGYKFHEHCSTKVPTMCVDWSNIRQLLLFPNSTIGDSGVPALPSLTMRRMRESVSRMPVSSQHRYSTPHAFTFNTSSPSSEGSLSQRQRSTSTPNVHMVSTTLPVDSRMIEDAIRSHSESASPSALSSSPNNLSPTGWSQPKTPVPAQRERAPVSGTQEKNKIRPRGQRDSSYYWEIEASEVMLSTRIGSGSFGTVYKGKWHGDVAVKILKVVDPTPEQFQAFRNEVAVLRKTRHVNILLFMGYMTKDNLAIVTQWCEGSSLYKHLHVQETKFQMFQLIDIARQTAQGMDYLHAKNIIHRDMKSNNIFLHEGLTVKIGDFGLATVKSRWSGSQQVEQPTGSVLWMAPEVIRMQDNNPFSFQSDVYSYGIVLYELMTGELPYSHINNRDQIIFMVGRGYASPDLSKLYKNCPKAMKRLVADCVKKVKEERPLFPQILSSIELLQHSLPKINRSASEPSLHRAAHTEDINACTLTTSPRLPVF
Serine/threonine-protein kinase 3 (Homo sapiens), sequence (Q13188 whole entry): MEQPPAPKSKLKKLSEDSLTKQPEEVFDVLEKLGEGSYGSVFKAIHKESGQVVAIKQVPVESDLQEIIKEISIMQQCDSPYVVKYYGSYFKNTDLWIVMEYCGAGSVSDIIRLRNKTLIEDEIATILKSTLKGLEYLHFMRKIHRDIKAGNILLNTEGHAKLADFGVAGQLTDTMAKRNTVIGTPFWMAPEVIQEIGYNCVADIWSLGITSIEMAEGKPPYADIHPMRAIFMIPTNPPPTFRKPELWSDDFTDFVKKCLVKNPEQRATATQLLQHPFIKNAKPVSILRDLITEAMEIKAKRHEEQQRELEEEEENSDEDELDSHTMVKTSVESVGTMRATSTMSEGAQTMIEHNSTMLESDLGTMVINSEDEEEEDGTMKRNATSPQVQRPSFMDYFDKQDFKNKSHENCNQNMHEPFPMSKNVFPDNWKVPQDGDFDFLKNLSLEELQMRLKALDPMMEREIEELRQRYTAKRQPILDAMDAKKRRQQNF
Ribosomal protein S6 kinase alpha-6 (Homo sapiens), sequence (Q9UK32 whole entry): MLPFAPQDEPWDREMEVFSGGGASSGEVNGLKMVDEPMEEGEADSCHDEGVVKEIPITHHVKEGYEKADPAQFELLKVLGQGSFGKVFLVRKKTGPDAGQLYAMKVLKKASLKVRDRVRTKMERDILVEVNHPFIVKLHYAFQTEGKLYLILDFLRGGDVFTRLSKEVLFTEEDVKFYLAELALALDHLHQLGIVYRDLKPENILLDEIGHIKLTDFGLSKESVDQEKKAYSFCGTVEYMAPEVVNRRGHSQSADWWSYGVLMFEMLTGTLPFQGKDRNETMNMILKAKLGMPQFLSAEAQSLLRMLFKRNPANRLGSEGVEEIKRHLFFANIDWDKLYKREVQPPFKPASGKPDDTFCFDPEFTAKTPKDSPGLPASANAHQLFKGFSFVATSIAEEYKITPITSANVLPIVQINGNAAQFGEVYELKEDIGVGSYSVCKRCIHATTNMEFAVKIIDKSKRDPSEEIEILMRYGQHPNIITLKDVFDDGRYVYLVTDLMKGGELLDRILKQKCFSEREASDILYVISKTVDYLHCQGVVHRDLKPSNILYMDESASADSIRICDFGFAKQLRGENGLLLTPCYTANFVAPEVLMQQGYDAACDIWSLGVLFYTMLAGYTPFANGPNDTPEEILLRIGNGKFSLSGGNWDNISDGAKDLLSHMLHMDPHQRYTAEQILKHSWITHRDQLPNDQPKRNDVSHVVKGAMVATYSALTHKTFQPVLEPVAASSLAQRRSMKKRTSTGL
Serine/threonine-protein kinase 17B (Homo sapiens), sequence (O94768 whole entry): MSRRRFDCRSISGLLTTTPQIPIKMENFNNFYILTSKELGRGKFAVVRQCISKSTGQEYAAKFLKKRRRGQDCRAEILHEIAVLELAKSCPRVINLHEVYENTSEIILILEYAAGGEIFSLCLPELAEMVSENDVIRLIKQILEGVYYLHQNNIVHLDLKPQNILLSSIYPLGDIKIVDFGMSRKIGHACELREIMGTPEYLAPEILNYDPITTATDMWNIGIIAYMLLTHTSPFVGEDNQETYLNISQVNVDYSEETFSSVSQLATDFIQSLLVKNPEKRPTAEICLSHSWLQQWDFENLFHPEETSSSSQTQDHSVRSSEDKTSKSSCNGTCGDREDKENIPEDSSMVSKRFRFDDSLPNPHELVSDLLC

O=C(O)[C@@H]1[C@@H](Cn2nnc3ccccc3c2=O)CC[C@H]1C(=O)c1ccc(OCCC2CCOCC2)cc1 [BAY-694]
inactive: residual activity [1] 100% | residual activity [2] 79% | residual activity [3] 100% | residual activity [4] 100% | residual activity [5] 100% | residual activity [6] 100% | residual activity [7] 99% | residual activity [8] 100% | residual activity [9] 100% | residual activity [10] 92% | residual activity [11] 83% | residual activity [12] 100% | inhibition [13] 10.2% | residual activity [14] 100% | inhibition [15] 13.1% | inhibition [16] 8.62% | residual activity [17] 94% | residual activity [18] 86% | residual activity [19] 100% | residual activity [20] 87% | inhibition [21] -7.25% | residual activity [22] 100% | residual activity [23] 100% | residual activity [24] 87% | inhibition [25] 13.1% | residual activity [26] 100% | residual activity [27] 97% | residual activity [28] 99% | residual activity [29] 98% | inhibition [30] 36.2% | residual activity [31] 100% | residual activity [32] 94% | inhibition [33] 17.5% | residual activity [34] 85% | residual activity [35] 100% | residual activity [36] 100% | residual activity [37] 100% | residual activity [38] 95% | residual activity [39] 100% | residual activity [40] 96% | residual activity [41] 73% | residual activity [42] 92%

O=C(O)[C@H]1[C@H](Cn2nnc3ccccc3c2=O)CC[C@@H]1C(=O)c1ccc(OCCC2CCOCC2)cc1 [BAY-7598]
inactive: residual activity [1] 88% | residual activity [2] 91% | residual activity [3] 100% | residual activity [4] 94% | residual activity [5] 96% | residual activity [6] 100% | residual activity [7] 100% | residual activity [8] 100% | residual activity [9] 87% | residual activity [10] 95% | residual activity [11] 97% | residual activity [12] 89% | inhibition [13] 7.4% | residual activity [14] 100% | inhibition [15] 8.3% | inhibition [16] 3.34% | residual activity [17] 88% | residual activity [18] 100% | residual activity [19] 91% | residual activity [20] 100% | inhibition [21] -0.42% | residual activity [22] 86% | residual activity [23] 100% | residual activity [24] 72% | inhibition [25] 6.48% | residual activity [26] 91% | residual activity [27] 85% | residual activity [28] 100% | residual activity [29] 97% | inhibition [30] 22.8% | residual activity [31] 100% | residual activity [32] 69% | inhibition [33] 12.6% | residual activity [34] 83% | residual activity [35] 100% | residual activity [36] 89% | residual activity [37] 94% | residual activity [38] 82% | residual activity [39] 100% | residual activity [40] 100% | residual activity [41] 73% | residual activity [42] 99%
